Source: patent US20190369111A1, “MOLECULAR KINETICS EVALUATION METHOD AND SCREENING METHOD” (Tokyo University of Science Foundation, priority 2016, published 2019)

Target: T1, endogenous wild-type K-Ras protein (Homo sapiens, UniProt P01116)
T1 construct: an endogenous wild-type K-Ras protein and wild-type H-Ras protein in HeLa cells; endogenous in cells; host or cells: HeLa cells
Test: Degradation of endogenous wild-type K-Ras protein in HeLa cells, Western blot analysis
Type: cell-based
Conditions: 48 hours after addition
Method: HeLa cells were seeded in a 24-well plate at a cell density of 8×10^4 cells/well, and then cultured under conditions of 37° C. and 5 vol % CO2 for 16 hours.
After 16 hours from cell seeding, TUS-007 was added to HeLa cells as follows. As a medium, a serum-free medium (37° C.) in which 1 mass % L-glutamine solution (Sigma-Aldrich) was added to D-MEM (high D-glucose, phenol red, sodium pyruvate (Wako Pure Chemical Industries, Ltd.)) was used. It is noted that the L-glutamine solution was added immediately before use. A DMSO solution containing TUS-007 was mixed with the medium so that the concentration of DMSO was 1 vol %, and added to each well at 500 μL/well, and cultured under conditions of 37° C. and 5 vol % CO2. As a control, DMSO was used.
The medium was removed 48 hours after addition of TUS-007, and then PBS was added to wash the cells. […]
After electrophoresis, proteins were transferred to a PVDF membrane (Immobion™-P, Millipore) under conditions of 100 V and 2 hours using a tank-type blotting device and a transfer buffer (25 mM Tris-HCl, 195 mM glycine, 0.01% SDS, 15% methanol). […] Subsequently, the membrane was treated with a chemiluminescence reagent Immobilon™ Western (Millipore), and then chemiluminescence was detected using a lumino image analyzer LAS-3000 (FUJIFILM Corporation). […]

T1 sequence (P01116 1-188 isoform P01116-2): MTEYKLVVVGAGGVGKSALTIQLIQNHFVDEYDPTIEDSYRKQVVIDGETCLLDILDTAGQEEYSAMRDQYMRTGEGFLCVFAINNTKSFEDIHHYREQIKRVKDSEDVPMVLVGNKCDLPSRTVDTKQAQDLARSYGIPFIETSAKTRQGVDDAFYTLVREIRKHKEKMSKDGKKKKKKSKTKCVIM

CC[C@@H](C)[C@H](NC(=O)CCCCCCNC(=O)[C@H](CC(C)C)NC(=O)CNC(=O)c1cc(Cl)ccc1Cl)C(=O)Nc1ccc2[nH]c(Cc3c[nH]c4ccccc34)nc2c1 [TUS-007]
amount of endogenous wild-type K-Ras protein: reduced
